In brackets after ≈: the same amount, converted by molar mass. Activity calls are given as the source filed them. No cut-off for these calls is given here.
Columns and labels:
[1] = biological target: Phosphatidylinositol 4,5-bisphosphate 3-kinase catalytic subunit alpha isoform (Homo sapiens, UniProt P42336); test: Inhibition of human PI3Kalpha after 15 mins
[2] = biological target: T1, Phosphatidylinositol 4,5-bisphosphate 3-kinase catalytic subunit beta isoform (Homo sapiens, UniProt P42338); test: Inhibition of human PI3Kbeta after 15 mins
[3] = biological target: Cytochrome P450 3A4 (Homo sapiens, UniProt P08684); test: Inhibition of human recombinant CYP3A4
[4] = biological target: Phosphatidylinositol 4,5-bisphosphate 3-kinase catalytic subunit gamma isoform (Homo sapiens, UniProt P48736); test: Inhibition of human PI3Kgamma after 15 mins
[5] = (§1) Apparent permeability of the compound in human Caco2 cells; type: ADME, cell-based; details: Caco-2
[6] = (§2) Drug metabolism in human liver microsomes assessed as compound lability; type: ADME; details: liver microsomes, read-out: Drug metabolism
[7] = biological target: T2, Phosphatidylinositol 4,5-bisphosphate 3-kinase catalytic subunit delta isoform (Homo sapiens, UniProt O00329); test: Inhibition of human PI3Kdelta after 15 mins
T2 sequence (O00329 whole entry): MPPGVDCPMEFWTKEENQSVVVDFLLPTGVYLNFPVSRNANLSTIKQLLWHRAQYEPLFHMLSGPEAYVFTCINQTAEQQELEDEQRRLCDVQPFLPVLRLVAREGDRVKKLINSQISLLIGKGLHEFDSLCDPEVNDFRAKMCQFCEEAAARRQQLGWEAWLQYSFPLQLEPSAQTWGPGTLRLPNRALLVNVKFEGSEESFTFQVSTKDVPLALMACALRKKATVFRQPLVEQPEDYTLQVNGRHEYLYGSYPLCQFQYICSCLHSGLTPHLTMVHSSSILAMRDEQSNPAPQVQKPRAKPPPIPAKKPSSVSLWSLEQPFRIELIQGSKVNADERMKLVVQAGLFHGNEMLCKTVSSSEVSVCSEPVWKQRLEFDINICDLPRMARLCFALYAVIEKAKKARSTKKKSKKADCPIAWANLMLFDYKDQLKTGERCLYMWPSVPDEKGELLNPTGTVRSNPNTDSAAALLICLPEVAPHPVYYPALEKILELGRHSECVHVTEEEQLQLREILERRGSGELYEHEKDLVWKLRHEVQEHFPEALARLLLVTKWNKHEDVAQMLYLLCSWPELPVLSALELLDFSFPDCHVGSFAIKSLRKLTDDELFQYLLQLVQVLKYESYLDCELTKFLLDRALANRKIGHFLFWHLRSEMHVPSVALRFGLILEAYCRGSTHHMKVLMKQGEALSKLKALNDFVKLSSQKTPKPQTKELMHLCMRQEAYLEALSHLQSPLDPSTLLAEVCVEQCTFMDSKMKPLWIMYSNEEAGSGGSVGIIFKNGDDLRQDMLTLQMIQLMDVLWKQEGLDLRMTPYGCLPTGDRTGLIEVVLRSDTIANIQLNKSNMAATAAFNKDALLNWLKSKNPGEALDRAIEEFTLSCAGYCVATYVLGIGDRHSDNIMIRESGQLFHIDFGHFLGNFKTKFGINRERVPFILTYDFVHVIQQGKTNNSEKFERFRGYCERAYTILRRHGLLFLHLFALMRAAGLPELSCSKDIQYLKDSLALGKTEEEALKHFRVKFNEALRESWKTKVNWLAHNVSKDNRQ

[8] = biological target: T1, Phosphatidylinositol 4,5-bisphosphate 3-kinase catalytic subunit beta isoform; test: Inhibition of PI3Kbeta in human PTEN-deficient PC3 cells assessed as Akt phosphorylation at S473; type: cell-based, PC-3
[9] = Drug metabolism in mouse liver microsomes assessed as compound lability; type: ADME, Microsome; details: for metabolised: liver microsomes, read-out: Drug metabolism; for Drug metabolism: microsomes
[10] = Thermodynamic solubility of the compound in 50 mM Phosphate buffer at pH 7.4 after 16 hrs by HPLC analysis; type: physicochemical; details: phosphate buffer, pH 7.4; read-out: Therm_solubility
[11] = system: Caco-2; test: as §1; type: ADME, cell-based
[12] = Plasma concentration in SCID mouse harboring human PTEN-deficient PC3 cells at 100 mg/kg, po after 1 hr; type: ADME, organism-based, PC-3; design: dose 100 mg/kg, route oral
[13] = system: Mus musculus; test: Inhibition of PI3Kbeta in SCID mouse harboring human PTEN-deficient PC3 cells assessed as Akt phosphorylation at S473 at 100 mg/kg, po after 16 hrs; type: functional, organism-based; design: dose 100 mg/kg; details: PC-3
[14] = Plasma concentration in SCID mouse harboring human PTEN-deficient PC3 cells at 100 mg/kg, po after 7 hrs; type: ADME, organism-based, PC-3; design: dose 100 mg/kg, route oral
[15] = system: Mus musculus; test: Inhibition of PI3Kbeta in SCID mouse harboring human PTEN-deficient PC3 cells assessed as Akt phosphorylation at S473 at 100 mg/kg, po after 1 hr; type: functional, organism-based; design: dose 100 mg/kg; details: PC-3
[16] = system: Mus musculus; test: Inhibition of PI3Kbeta in SCID mouse harboring human PTEN-deficient PC3 cells assessed as Akt phosphorylation at S473 at 100 mg/kg, po after 7 hrs; type: functional, organism-based; design: dose 100 mg/kg; details: PC-3
[17] = Plasma concentration in SCID mouse harboring human PTEN-deficient PC3 cells at 100 mg/kg, po after 16 hrs; type: ADME, organism-based, PC-3; design: dose 100 mg/kg, route oral
[18] = Efflux ratio of permeability from basolateral to apical side over apical to basolateral side in human Caco2 cells; type: ADME, cell-based; details: Caco-2
[19] = system: Mus musculus; test: Inhibition of PI3Kbeta in SCID mouse harboring human PTEN-deficient PC3 cells assessed as Akt phosphorylation at S473 at 150 mg/kg, po after 1 hr; type: functional, organism-based; design: dose 150 mg/kg; details: PC-3
[20] = system: Mus musculus; test: Inhibition of PI3Kbeta in SCID mouse harboring human PTEN-deficient PC3 cells assessed as Akt phosphorylation at S473 at 150 mg/kg, po after 7 hrs; type: functional, organism-based; design: dose 150 mg/kg; details: PC-3
[21] = system: Mus musculus; test: Inhibition of PI3Kbeta in SCID mouse harboring human PTEN-deficient PC3 cells assessed as Akt phosphorylation at S473 at 150 mg/kg, po after 16 hrs; type: functional, organism-based; design: dose 150 mg/kg; details: PC-3
[22] = system: Liver microsome; test: as §2; type: ADME; details: microsomes

Cytochrome P450 3A4, sequence (P08684 whole entry, canonical isoform): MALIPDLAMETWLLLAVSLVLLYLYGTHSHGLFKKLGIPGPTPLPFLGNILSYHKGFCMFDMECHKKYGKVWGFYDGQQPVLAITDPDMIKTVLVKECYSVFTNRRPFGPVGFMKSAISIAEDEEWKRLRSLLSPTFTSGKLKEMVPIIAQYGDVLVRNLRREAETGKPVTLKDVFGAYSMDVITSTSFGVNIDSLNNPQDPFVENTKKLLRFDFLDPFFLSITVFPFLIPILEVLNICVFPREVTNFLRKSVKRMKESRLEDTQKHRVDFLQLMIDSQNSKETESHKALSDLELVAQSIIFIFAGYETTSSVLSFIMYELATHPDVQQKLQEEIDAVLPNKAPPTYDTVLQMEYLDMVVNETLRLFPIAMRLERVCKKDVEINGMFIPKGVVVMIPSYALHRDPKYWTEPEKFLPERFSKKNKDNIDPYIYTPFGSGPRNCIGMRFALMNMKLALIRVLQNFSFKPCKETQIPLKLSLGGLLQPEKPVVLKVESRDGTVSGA
Phosphatidylinositol 4,5-bisphosphate 3-kinase catalytic subunit alpha isoform, sequence (P42336 whole entry, canonical isoform): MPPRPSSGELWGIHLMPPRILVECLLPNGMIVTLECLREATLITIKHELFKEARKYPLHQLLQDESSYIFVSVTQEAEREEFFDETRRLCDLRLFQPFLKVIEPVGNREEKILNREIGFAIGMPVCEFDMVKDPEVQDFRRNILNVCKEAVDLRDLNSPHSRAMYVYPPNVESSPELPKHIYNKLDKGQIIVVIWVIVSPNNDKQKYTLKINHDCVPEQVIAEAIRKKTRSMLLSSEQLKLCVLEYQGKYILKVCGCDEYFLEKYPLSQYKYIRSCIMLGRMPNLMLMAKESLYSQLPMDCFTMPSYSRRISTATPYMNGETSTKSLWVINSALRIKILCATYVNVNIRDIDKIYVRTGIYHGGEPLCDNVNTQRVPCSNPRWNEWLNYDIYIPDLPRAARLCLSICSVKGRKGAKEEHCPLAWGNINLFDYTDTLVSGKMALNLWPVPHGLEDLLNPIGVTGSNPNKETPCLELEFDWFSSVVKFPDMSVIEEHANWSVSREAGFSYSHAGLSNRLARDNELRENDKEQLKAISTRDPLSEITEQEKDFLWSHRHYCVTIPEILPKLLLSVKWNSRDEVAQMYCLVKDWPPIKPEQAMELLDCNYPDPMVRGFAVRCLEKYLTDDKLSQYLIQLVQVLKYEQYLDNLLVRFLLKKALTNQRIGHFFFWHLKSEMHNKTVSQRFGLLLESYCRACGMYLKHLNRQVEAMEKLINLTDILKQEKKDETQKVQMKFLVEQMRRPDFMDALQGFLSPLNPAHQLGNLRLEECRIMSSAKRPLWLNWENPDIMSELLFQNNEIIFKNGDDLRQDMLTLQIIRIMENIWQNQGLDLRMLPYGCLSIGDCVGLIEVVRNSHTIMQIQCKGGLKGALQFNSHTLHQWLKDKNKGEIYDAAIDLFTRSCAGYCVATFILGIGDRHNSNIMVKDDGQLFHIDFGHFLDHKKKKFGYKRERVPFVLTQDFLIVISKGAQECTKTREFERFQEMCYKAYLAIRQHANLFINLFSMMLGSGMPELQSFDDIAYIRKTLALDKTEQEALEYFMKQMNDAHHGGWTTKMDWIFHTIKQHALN
T1 sequence (P42338 whole entry, canonical isoform): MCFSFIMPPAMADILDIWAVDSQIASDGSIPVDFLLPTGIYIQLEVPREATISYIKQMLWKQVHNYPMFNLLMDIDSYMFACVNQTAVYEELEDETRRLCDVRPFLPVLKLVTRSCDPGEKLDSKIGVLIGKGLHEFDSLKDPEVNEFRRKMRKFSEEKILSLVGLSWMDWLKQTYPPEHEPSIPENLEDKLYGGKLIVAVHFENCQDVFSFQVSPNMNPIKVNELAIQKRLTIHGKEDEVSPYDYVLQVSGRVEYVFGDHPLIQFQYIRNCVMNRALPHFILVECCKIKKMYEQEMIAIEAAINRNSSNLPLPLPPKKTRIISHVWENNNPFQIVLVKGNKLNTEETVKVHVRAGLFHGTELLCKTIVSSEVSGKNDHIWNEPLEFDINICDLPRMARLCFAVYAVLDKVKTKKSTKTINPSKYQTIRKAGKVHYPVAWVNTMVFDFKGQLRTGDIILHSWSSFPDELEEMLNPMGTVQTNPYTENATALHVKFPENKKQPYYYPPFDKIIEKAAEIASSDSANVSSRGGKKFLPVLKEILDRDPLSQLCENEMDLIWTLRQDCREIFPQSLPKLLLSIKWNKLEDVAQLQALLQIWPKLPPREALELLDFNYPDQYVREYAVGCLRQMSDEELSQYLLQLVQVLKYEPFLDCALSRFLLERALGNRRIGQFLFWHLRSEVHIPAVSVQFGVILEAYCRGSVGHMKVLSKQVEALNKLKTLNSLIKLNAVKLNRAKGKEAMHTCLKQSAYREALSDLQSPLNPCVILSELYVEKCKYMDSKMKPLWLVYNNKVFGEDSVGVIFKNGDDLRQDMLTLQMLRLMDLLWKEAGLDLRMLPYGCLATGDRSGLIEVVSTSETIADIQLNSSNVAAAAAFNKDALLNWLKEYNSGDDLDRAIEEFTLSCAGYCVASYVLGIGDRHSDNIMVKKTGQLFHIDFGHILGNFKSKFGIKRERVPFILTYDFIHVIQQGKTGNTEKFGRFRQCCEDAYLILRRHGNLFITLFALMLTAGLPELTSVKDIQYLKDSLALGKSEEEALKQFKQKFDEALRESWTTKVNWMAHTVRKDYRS
Phosphatidylinositol 4,5-bisphosphate 3-kinase catalytic subunit gamma isoform, sequence (P48736 whole entry, canonical isoform): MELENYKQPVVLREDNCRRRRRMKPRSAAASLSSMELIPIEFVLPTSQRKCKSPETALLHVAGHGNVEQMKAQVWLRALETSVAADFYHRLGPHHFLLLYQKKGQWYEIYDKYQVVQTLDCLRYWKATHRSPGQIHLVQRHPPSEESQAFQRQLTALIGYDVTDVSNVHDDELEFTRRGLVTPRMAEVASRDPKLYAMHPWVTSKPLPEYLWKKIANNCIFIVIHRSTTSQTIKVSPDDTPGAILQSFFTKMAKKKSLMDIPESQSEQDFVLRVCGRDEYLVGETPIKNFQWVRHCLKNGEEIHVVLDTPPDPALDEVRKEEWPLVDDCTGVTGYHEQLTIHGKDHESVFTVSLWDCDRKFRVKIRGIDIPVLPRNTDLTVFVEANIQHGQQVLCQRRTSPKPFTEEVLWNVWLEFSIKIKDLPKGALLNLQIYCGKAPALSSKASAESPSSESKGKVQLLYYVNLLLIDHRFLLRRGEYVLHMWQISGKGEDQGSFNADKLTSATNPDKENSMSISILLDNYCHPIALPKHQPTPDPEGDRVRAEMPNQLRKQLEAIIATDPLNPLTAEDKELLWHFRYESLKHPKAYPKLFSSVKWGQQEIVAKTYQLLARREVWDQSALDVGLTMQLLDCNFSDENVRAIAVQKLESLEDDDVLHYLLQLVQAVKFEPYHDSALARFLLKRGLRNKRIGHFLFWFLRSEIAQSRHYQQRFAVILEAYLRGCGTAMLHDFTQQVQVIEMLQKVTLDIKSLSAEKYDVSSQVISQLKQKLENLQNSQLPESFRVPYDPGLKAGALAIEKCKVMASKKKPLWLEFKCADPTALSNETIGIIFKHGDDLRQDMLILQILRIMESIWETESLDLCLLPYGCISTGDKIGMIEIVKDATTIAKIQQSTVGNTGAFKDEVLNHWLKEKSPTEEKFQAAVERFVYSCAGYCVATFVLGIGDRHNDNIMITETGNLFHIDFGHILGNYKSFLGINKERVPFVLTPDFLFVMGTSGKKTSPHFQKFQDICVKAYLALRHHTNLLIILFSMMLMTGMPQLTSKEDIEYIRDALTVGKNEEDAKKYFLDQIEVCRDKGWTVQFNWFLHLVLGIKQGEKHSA

Structure (SMILES)	IC50 [1]	IC50 [2]	IC50 [3]	IC50 [4]	Papp [5]	metabolised [6]	IC50 [7]	IC50 [8]	metabolised [9]	solubility thermodynamic at 16 h [10]	also measured
O=C(O)c1sc(N2CCOCC2)nc1CC(=O)N1CCc2c(Br)cccc21	1120 nM	11 nM	40000 nM	> 10000 nM	0.2 ×10⁻⁶ cm/s	8%	133 nM	1780 nM	0%		
CC1Cc2c(Br)cccc2N1C(=O)Cc1nc(N2CCOCC2)sc1C(=O)O (single isomer, unassigned; enantiomer 2)	3110 nM	84 nM	40000 nM	10000 nM		0%	861 nM	307 nM		4290 µM (≈ 2000 µg/mL)	Papp [11]: 0.4 ×10⁻⁶ cm/s; Drug metabolism [9]: 7%
NC(=O)c1sc(N2CCOCC2)nc1CC(=O)N1CCc2cc(Cl)ccc21	> 10000 nM	166 nM		> 10000 nM			1860 nM	110 nM			
CC1CN(C(=O)Cc2nc(N3CCOCC3)sc2C(N)=O)c2ccccc21 (racemic)	> 10000 nM	130 nM		4200 nM			567 nM	75 nM			
NC(=O)c1sc(N2CCOCC2)nc1CC(=O)N1CCc2c(F)cccc21	7230 nM	138 nM		> 10000 nM			485 nM	38 nM			
O=C(O)c1sc(N2CCOCC2)nc1CC(=O)N1CCc2c(Cl)cccc21	2210 nM	23 nM	40000 nM	> 10000 nM	0.7 ×10⁻⁶ cm/s	1%	245 nM	2000 nM	9%	1480 µM (≈ 602 µg/mL)	
CC1Cc2c(Cl)cccc2N1C(=O)Cc1nc(N2CCOCC2)sc1C(N)=O (centres undefined)	> 10000 nM	10 nM		> 10000 nM	29.6 ×10⁻⁶ cm/s	77%	58 nM	13 nM	70%	2 µM (≈ 0.842 µg/mL)	
NC(=O)c1sc(N2CCOCC2)nc1CC(=O)N1CCc2c(Cl)cccc21	6330 nM	49 nM	40000 nM	> 10000 nM		40%	277 nM	122 nM	61%	2 µM (≈ 0.814 µg/mL)	
CC1Cc2c(Cl)cccc2N1C(=O)Cc1nc(N2CCOCC2)sc1C(=O)O (centres undefined)	> 10000 nM	8 nM	40000 nM	> 10000 nM	0.9 ×10⁻⁶ cm/s	8%	149 nM	876 nM	17%	4740 µM (≈ 2000 µg/mL)	
O=C(O)c1sc(N2CCOCC2)nc1CC(=O)N1CCc2ccccc21	> 10000 nM	270 nM		> 10000 nM			1550 nM	1420 nM			
O=C(O)c1sc(N2CCOCC2)nc1CC(=O)N1CCc2cc(Br)ccc21	> 10000 nM	308 nM		> 10000 nM			1000 nM	3000 nM			
NC(=O)c1sc(N2CCOCC2)nc1CC(=O)N1CCc2cc(Br)ccc21	> 10000 nM	240 nM		> 10000 nM			483 nM	420 nM			
NC(=O)c1sc(N2CCOCC2)nc1CC(=O)N1CCc2cc(F)ccc21	6970 nM	22 nM	40000 nM	> 10000 nM	22.2 ×10⁻⁶ cm/s	17%	134 nM	15 nM	22%	7 µM (≈ 2.73 µg/mL)	concentration at 1 h [12]: 310 nM; inhibition [13]: Active; concentration at 7 h [14]: 40 nM; inhibition [15]: Active; inhibition [16]: Active; concentration at 16 h [17]: 4 nM
CC1Cc2cc(F)ccc2N1C(=O)Cc1nc(N2CCOCC2)sc1C(=O)O (centres undefined)	> 10000 nM	15 nM	40000 nM	> 10000 nM	0.9 ×10⁻⁶ cm/s	3%	219 nM	817 nM	3%	4930 µM (≈ 2000 µg/mL)	
CC1Cc2c(Br)cccc2N1C(=O)Cc1nc(N2CCOCC2)sc1C(N)=O (single isomer, unassigned; (-))	1320 nM	13 nM	25000 nM	3260 nM	20.9 ×10⁻⁶ cm/s	85%	92 nM	3 nM			Drug metabolism [9]: 89%
CC1Cc2cc(F)ccc2N1C(=O)Cc1nc(N2CCOCC2)sc1C(N)=O (centres undefined)	> 10000 nM	20 nM	40 nM	> 10000 nM	19.3 ×10⁻⁶ cm/s	42%	127 nM	14 nM	48%	45 µM (≈ 18.2 µg/mL)	
CC1Cc2ccccc2N1C(=O)Cc1nc(N2CCOCC2)sc1C(=O)O (racemic)	> 10000 nM	340 nM		> 10000 nM			2720 nM	2310 nM			
O=C(O)c1sc(N2CCOCC2)nc1CC(=O)N1CCc2cc(F)ccc21	> 10000 nM	25 nM	40000 nM	> 10000 nM	0.4 ×10⁻⁶ cm/s	1%	64 nM	1730 nM	1%	5110 µM (≈ 2000 µg/mL)	efflux ratio [18]: 13
CC1Cc2ccccc2N1C(=O)Cc1nc(N2CCOCC2)sc1C(N)=O (racemic)	> 10000 nM	178 nM		> 10000 nM			435 nM	40 nM			
NC(=O)c1sc(N2CCOCC2)nc1CC(=O)N1CCc2ccccc21	4080 nM	71 nM	40000 nM	> 10000 nM	16 ×10⁻⁶ cm/s	35%	230 nM	25 nM	44%	3 µM (≈ 1.12 µg/mL)	
CC1Cc2c(Br)cccc2N1C(=O)Cc1nc(N2CCOCC2)sc1C(=O)O (single isomer, unassigned; enantiomer 1)											inhibition [19]: Active; inhibition [20]: Active; inhibition [21]: Active
NC(=O)c1sc(N2CCOCC2)nc1CC(=O)Nc1ccc(F)c(Cl)c1	8280 nM	45 nM		> 10000 nM			227 nM				
CC1Cc2c(Br)cccc2N1C(=O)Cc1nc(N2CCOCC2)sc1C(N)=O (single isomer, unassigned; enantiomer 2)	1320 nM	58 nM	40000 nM	> 10000 nM			430 nM	17 nM			Papp [11]: 20.7 ×10⁻⁶ cm/s; Drug metabolism [22]: 75%; Drug metabolism [9]: 67%
NC(=O)c1sc(N2CCOCC2)nc1CC(=O)N1CCc2c(Br)cccc21	2150 nM	11 nM	40000 nM	8130 nM	24.7 ×10⁻⁶ cm/s	57%	178 nM	22 nM	63%	2 µM (≈ 0.903 µg/mL)	
